pIC50: −log10 of the molar value. Structures can show the parent of a compound that is named as a salt.
Biological target: α7-subtype of nicotinic receptors (Rattus norvegicus, UniProt Q05941)
Assay: biochemical
Format: binding

Chain of α7-subtype of nicotinic receptors (Q05941 23-502): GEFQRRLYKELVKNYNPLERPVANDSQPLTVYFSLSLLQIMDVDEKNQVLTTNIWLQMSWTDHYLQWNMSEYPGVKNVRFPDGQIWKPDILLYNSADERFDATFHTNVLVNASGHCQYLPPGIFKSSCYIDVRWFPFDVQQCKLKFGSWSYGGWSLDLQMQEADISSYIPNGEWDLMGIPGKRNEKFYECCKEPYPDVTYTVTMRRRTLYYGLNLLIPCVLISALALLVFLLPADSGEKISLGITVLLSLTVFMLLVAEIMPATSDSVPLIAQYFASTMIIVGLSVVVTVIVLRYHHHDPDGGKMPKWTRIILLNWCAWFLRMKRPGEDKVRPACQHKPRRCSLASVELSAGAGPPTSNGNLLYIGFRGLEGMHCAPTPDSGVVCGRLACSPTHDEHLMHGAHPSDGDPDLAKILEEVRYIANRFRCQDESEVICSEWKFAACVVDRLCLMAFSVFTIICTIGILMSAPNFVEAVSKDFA

Structure (SMILES): c1cc2c(cc1-c1nnc(N3CCN4CCC3C4)o1)OCO2 (stereo not shown) [Compound I, 4-(5-Benzo[1,3]dioxol-5-yl-[1,3,4]oxadiazol-2-yl)-1,4-diaza-bicyclo[3.2.1]octane fumaric acid salt]
- pIC50: > 7.00

Reference: US20120071469A1 (priority 2009, published 2012)
